“And” between values parts separate entries of the source, which are not always exact repeats. Identical values can stand only once.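 All cell lines were grown in 96-well plates and treated with compound for 48 hours. Abbreviation: GI50, concentration required for 50% inhibition of growth. TGI: concentration producing complete growth inhibition.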
Legend:
Experiment in all cases: NCI anticancer screen, dose series, 48 h
[1] = tested on: OVCAR-4 ovarian
[2] = tested on: OVCAR-5 ovarian
[3] = tested on: 786-0 renal
[4] = tested on: RPMI-8226 leukemia
[5] = tested on: KM12 colon
[6] = tested on: UACC-62 melanoma
[7] = tested on: OVCAR-8 ovarian
[8] = tested on: SF-295 CNS
[9] = tested on: RXF 393 renal
[10] = tested on: EKVX NSCLC

Row | Structure (SMILES) | GI50 [1] | TGI [1] | GI50 [2] | TGI [2] [µM] | GI50 [3] [µM] | TGI [3] [µM] | GI50 [4] [µM] | TGI [4] | GI50 [5] [µM] | TGI [5] | GI50 [6] [µM] | TGI [6] | GI50 [7] | TGI [7] | GI50 [8] | TGI [8] | GI50 [9] [µM] | TGI [9] | GI50 [10] | TGI [10]
1 | O=[N+]([O-])c1ccc(N2CCN(Cc3ccccc3)CC2)c2c1no[n+]2[O-] | 1.37 µM | 3.07 µM | 4.15 µM | 8.77 | 1.72 | 3.18 | 1.76 | 4.64 µM | 1.48 | 3.05 µM | 1.48 | 3.4 µM | 1.59 µM | 5.25 µM | 1.38 µM | 2.84 µM | 1.31 | 2.76 µM |  | 
2 | COC(=O)/C=C/c1cc(O)c2c(c1)C(C(=O)OC)C(c1ccc(O)c(O)c1)O2 (stereo not drawn) | 0.34 µM and 0.353 µM | 62.2 µM and > 75.9 µM | 4.28 µM and 2.95 µM | > 100 | 0.626 | > 56.3 | 0.132 | 16.5 µM and 10.5 µM | 0.395 | 20.7 µM and 16.6 µM | 0.0678 | 4.56 µM and 27.9 µM | 0.526 µM and 0.0809 µM | > 54.9 µM and 12 µM | 0.344 µM and 0.143 µM | 15.4 µM and 9.85 µM | 0.0472 | 86.4 µM and > 100 µM | 0.851 µM and 0.418 µM | 78.5 µM and > 100 µM
3 | O=C(O)c1ccc(S(=O)(=O)c2ccccc2)c([N+](=O)[O-])c1 |  | > 100 µM |  | > 100 |  | > 100 |  | > 100 µM |  | > 100 µM |  | > 100 µM |  |  |  | > 100 µM |  | > 100 µM |  | > 100 µM
4 | C/C(=N\N=C(N)N)C(CN(CC(C)C)CC(C)C)C(=O)Nc1ccc(C)cc1C (stereo not drawn) |  | > 100 µM |  | > 100 |  | > 100 |  |  |  | > 100 µM |  | > 100 µM |  | > 100 µM |  | > 100 µM |  | > 100 µM |  | > 100 µM
5 | CCNc1nnc(CSc2nc(-c3ccccc3)c(-c3ccccc3)[nH]2)s1 |  | > 100 µM |  | 39.8 |  | 56.6 |  | 54.9 µM |  | 23.9 µM |  |  |  | 30 µM |  | 34.1 µM |  |  |  | 44.4 µM
6 | O=C(Cc1nc2ccccc2s1)C(=O)Nc1ccc(Cl)cc1 |  | > 100 µM |  | > 100 |  | > 100 |  | > 100 µM |  | > 100 µM |  | > 100 µM |  | > 100 µM |  | > 100 µM |  |  |  | > 100 µM
7 | C/C(=N\NC(=S)N1CCCCCC1)c1nccnc1C |  | > 100 µM |  | > 100 |  | > 100 |  | > 100 µM |  | > 100 µM |  | 1.3 µM |  | > 100 µM |  | 16.6 µM |  | 7.06 µM |  | 
8 | CC(=O)N1CCC2(C=Nc3ccccc32)CC1 |  | > 100 µM |  | > 100 |  | > 100 |  | > 100 µM |  | > 100 µM |  | > 100 µM |  | > 100 µM |  | > 100 µM |  |  |  | > 100 µM
9 | O=[N+]([O-])c1cnc(Sc2ccncn2)c([N+](=O)[O-])c1 |  |  | 16.3 µM | 31.7 | 12.2 | 25 |  |  | 20.9 | 55.1 µM | 10.5 | 22.3 µM | 11.7 µM | 25 µM | > 100 µM | > 100 µM | 1.97 | 4.17 µM |  | 
10 | c1ccc(N=C2c3ccccc3CN2c2ccccc2)cc1 |  | > 100 µM |  |  |  | > 100 |  | > 100 µM |  | > 100 µM |  | > 100 µM |  | > 100 µM |  | > 100 µM |  | > 100 µM |  | > 100 µM
11 | Cc1ccc(Nc2nc(NCCO)c3ccccc3n2)cc1C | 3.14 µM | 15.6 µM | 4.29 µM | 16.4 | 6.94 | 20.1 | 2.55 | 9.46 µM | 8.06 | 20.5 µM | 12.1 | 25.3 µM | 5.44 µM | 25.9 µM | 4.37 µM | 17.5 µM | 3.14 | 13.7 µM |  | 
12 | COc1cccc(N2C(=O)c3c(c4[nH]c5ccccc5c4c4ccc(C(C)(C)C)cc34)C2=O)c1 |  | > 100 µM |  | > 100 |  | > 100 |  |  |  | > 100 µM |  | > 100 µM |  | > 100 µM |  | > 100 µM |  | > 100 µM |  | > 100 µM
13 | Nc1ccccc1C#CC#Cc1ccccc1N | 23.7 µM | > 100 µM |  |  | 13.2 | 27 | 8.08 | > 100 µM | 8.46 | 36.2 µM | 11.8 | 25.3 µM | 28.7 µM | > 100 µM | 2.76 µM | > 100 µM | 25.6 | 67.7 µM |  | 
14 | CCOC(=N)CC(=O)Nc1ccc(Cl)cc1 |  | > 100 µM |  | > 100 |  | > 100 |  |  |  | > 100 µM |  | > 100 µM |  | > 100 µM |  | > 100 µM |  | > 100 µM |  | > 100 µM
15 | CNc1ccccc1C(=O)N/N=C/C=C/c1ccccc1 | 5.61 µM | > 48.5 µM | 6.64 µM | > 76.5 | 15.6 | > 100 | 2.68 | > 100 µM | 0.547 | 50.5 µM | 0.816 | 32.7 µM | 3.41 µM | > 100 µM | 1.57 µM | > 54.3 µM |  |  |  | 
16 | S=CN1CCCCC1 |  |  |  | > 100 |  | > 100 |  | > 100 µM |  | > 100 µM |  | > 100 µM |  | > 100 µM |  | > 100 µM |  |  |  | > 100 µM
17 | CN(C)c1ccc(-c2cc(=O)c3ccccc3[nH]2)cc1 |  |  |  |  |  | > 100 |  | > 100 µM |  | > 100 µM |  |  |  | > 100 µM |  | > 100 µM |  | > 100 µM |  | > 100 µM
18 | CN/N=C(/Cc1occc(=O)c1O)C(=O)Nc1ccc(C)c(C)c1 |  | > 100 µM |  | > 100 |  | > 100 |  | > 100 µM |  | > 100 µM |  | > 100 µM |  | > 100 µM |  | > 100 µM |  |  |  | > 100 µM
19 | CC(C)C(C(=O)O)N(CC1(O)OCC(O)C(O)C1O)N=O (stereo not drawn) |  |  |  | > 100 |  | > 100 |  | > 100 µM |  | > 100 µM |  | > 100 µM |  | > 100 µM |  |  |  | > 100 µM |  | > 100 µM
20 | CC(O)C1OC(O)C2OC(C)(C)OC12 (stereo not drawn) |  | > 100 µM |  | > 100 |  | > 100 |  | > 100 µM |  | > 100 µM |  | > 100 µM |  | > 100 µM |  | > 100 µM |  |  |  | > 100 µM

From PubChem BioAssay (NCI)
